In patent publication US9315481B2, “Compounds and methods for treating leukemia” (INDIANA UNIVERSITY RESEARCH AND TECHNOLOGY CORPORATION, priority 2012, dated 2016):
Entries after “also recorded” stand apart in the source; their conditions may differ.

Assays:
T-ALL cells [1] = assay: potentiation of conventional drugs, ATP assay; type: cell-based; settings: fixed dose 20 μM, compared to vehicle
Source text: The compounds described herein potentiate the efficacy of conventional drugs for treating leukemia, such as doxorubicin and STATTIC. […]

[2] = test system: T-ALL lines from a murine model of T-cell leukemia induced by oncogenic Notch; assay: ATP viability assay of leukemia cells from murine Notch-induced T-ALL; type: cell-based; settings: Mus musculus, T-ALL lines from mice with terminal Notch-induced disease
Source text: (§1) The compounds described herein are effective against leukemia cells harvested from the bone marrow (BM), thymus (T) or spleen (S). Cells are harvested from the bone marrow (BM), thymus (T) or spleen (S) of mice with terminal Notch (ICN)-induced T-ALL, as determined in a conventional ATP assay (viability at 96 hrs) of the leukemia cells cultured with IL-7. […] Similar inhibition is observed in immortalized Jurkat, SupT1, MOLT4, and HPB-ALL cell lines derived from relapse T-ALL patients, with IC50s from 10-30 μM. Relapse T-ALL lines (Jurkat, SupT1, MOLT4, and HPB-ALL) are reportedly resistant to treatment with glucocorticoids. The compounds described herein are also effective against TAIL7-Dexamethasone resistant cells, which show reduced sensitivity to inhibitors of other leukemia-associated signaling pathways (such as PI3K/Akt, mTOR), and to cytotoxic chemotherapy drugs.

[3] = Maximum tolerated dose (MTD); settings: in vivo, po
Source text: Maximum tolerated dose (MTD). […] Animals were monitored for up to 14 days after termination of dosing.

Survivin and Bcl-xL mRNA = assay: quantitative PCR of survival genes; type: cell-based; settings: after 24 h at doses between 25-40 μM
Source text: The compounds described herein caused a substantial downregulation of survival genes regulated by STAT3 and NF-κB, such as Survivin, Bcl-xL, and miR-21.

STAT3 = assay: activation status of signaling pathways in T-ALL; type: cell-based
Experimental: Western blot analysis. For whole cell lysates, cells are harvested, lysed in RIPA buffer (Santa Cruz Biotechnology; Santa Cruz, Calif.), and protein is quantified and electrophoresed. Nuclear and cytoplasmic extracts are isolated using a conventional method (See, Jackson, (2006)). Immunoblotting is performed using the following antibodies: APE1 (Novus Biologicals; Littleton, Colo.), STAT1, STAT3, STAT5, p-STAT1(Y701), p-STAT3(Y705), p-STAT5 (Y694) (Cell Signaling; Danvers, Mass.), and tubulin (Sigma Aldrich) or GAPDH (Santa Cruz).
Biochemistry. […] That result is in contrast to what is observed with other compounds such as PI3K/Akt or mTOR.

T-ALL cells [4] = assay: Annexin V/PI assay of apoptosis; type: cell-based; settings: E3330 […] μM or 40 μM, d1 to d5
Source text: The compounds described herein cause apoptosis of leukemia cells, including leukemia T-ALL cells.

refractory T-ALL cells = assay: xenograft model of leukemia; type: in vivo, NSG mice; settings: b.i.d., one cycle of 5 days; for circulating blasts (human CD45+ cells in peripheral blood): p<0.05 vs vehicle
Experimental: Xenograft models of childhood relapse, refractory ALL. The antileukemia efficacy of Ref-1 redox blockade by the compounds described herein is evaluated in xenograft models of human ALL. In a first phase, the xenograft model with TAIL7 cells is used to test the therapeutic efficacy of the test compound as monotherapy, and in dual-agent regimens combining test compound with agents used as frontline chemotherapy for T-ALL (Vincristine; Doxorubicin; Dexamethasone) and for relapse T-ALL (Methotrexate). […] Such models of childhood ALL are used in immunodeficient mice (NOD/SCID: terminal leukemia in 70-120 d; NSG: terminal leukemia in 28-35 days with TAIL7 cells), including specimens from relapsed and infant ALL.
Xenografts of pediatric relapse T-cell leukemia: TAIL7 cells or cells from patients with relapse T-ALL (high cellularity; ≧90% BM involvement) will be used for the xenografts; patient specimens will be provided by Dr. Batra, according with IRB regulations. Leukemia cells (1×10^6 TAIL7 cells; 2-3×10^6 patient cells/mice) will be transplanted IV into NSG mice (7-9 wk old). 19, 24 Mice will be monitored weekly for presence of human blasts in the PB, by flow cytometry.
NSG mice (n=5/group) transplanted with refractory T-ALL cells. […] At the end of treatment, frequency of human CD45+ cells was performed in the peripheral blood (PB) and in the bone marrow (BM). Animals are sacrificed for analysis.

STAT3, AP-1, and NF-κB = assay: DNA binding and transcriptional activity of the target TFs of Ref-1; type: biochemical; settings: STAT3, AP-1, NF-κB
Experimental: Electrophoretic mobility shift assay (EMSA). […] For the experiment of APE1 interacting with STAT3, purified APE1 protein is reduced with 2 mM DTT (dithiothreitol) for 10 min and diluted to a final concentration of 4 mg with 0.4 mM DTT in PBS. Reduced APE1 is added to 15 mg nuclear extract as above. The final concentration of DTT in redox reactions is 0.04 mM.

leukemia cells = assay: leukemia cell survival; type: cell-based; settings: primary cells from ALL patients, relapsed T-ALL, cells from murine Notch-induced leukemia
Experimental: (§2) The activity of other selective Ref-1 redox inhibitors are analyzed against leukemia cells according to conventional redox EMSA assays. See, Su, D. et al. Interactions of APE1 with a redox inhibitor: Evidence for an alternate conformation of the enzyme. Biochemistry 50, 82-92 (2011). Nyland et al., Design and Synthesis of Novel Quinone Inhibitors Targeted to the Redox Function of Apurinic/Apyrimidinic Endonuclease 1/Redox Enhancing Factor-1 (Ape1/Ref-1). J Med Chem 53, 1200-1210 (2010). Kelley et al., Cancer Drug Discovery and Development (ed Rebecca G. Bagley) Springer (part of Springer Science+Business Media), 2010. Luo et al., Role of the multifunctional DNA repair and redox signaling protein Ape1/Ref-1 in cancer and endothelial cells: Small molecule inhibition of Ape1's redox function. Antioxid Redox Signal 10, 1853-1867 (2008). Georgiadis et al., Evolution of the redox function in mammalian Apurinic/apyrimidinic Mutation Research 643, 54-63 (2008).

[5] = test system: Jurkat, SupT1, MOLT4, and HPB-ALL cell lines; assay: viability of relapse T-ALL cell lines; type: cell-based; settings: Homo sapiens; immortalized lines derived from relapse T-ALL patients
Source text: as §1

TAIL7 cells = assay: standard cell survival assay (ATP assay) of TAIL7 cells; type: cell-based; settings: Homo sapiens, 96 h
Source text: The compounds described herein decrease survival of leukemia cells.

Ref-1 = Ref-1 (Homo sapiens, UniProt P27695); assay: conventional redox EMSA assay; type: biochemical
Sequence of Ref-1 (P27695 whole entry): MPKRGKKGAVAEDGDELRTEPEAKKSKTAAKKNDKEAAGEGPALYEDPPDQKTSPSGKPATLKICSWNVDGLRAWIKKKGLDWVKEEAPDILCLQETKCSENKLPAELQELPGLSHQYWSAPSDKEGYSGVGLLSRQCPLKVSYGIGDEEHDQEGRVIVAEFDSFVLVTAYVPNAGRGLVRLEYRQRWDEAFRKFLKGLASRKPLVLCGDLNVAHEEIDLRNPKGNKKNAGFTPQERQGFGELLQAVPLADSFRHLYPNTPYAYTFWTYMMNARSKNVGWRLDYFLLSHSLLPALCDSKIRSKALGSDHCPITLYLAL
Source text: as §2, with “Biochemistry” for “The activity of other selective Ref-1 redox inhibitors are analyzed against leukemia cells according to conventional redox EMSA assays. See, Su, D. et al. Interactions of APE1 with a redox inhibitor: Evidence for an alternate conformation of the enzyme. Biochemistry”
Electrophoretic mobility shift assay (EMSA). EMSAs are performed as previously described (Georgiadis, (2008) #15789) with the some modifications. Briefly, for super-shift assay, 6 μg STAT3 antibody (Santa Cruz Biotechnology, Inc, Santa Cruz, Calif.) is pre-incubated with 15 mg nuclear extract from PaCa-2 cells (treated with 50 ng/mL IL-6 for 2 hrs in 2% serum), followed by 1 μg/mL poly(dI-dC).poly(dI-dC) (Amersham Biosciences, Piscataway, N.J.) and 0.1 pmol 5′HEX-labeled double-stranded oligonucleotide DNA (Midland Certified Reagent Company, Midland, Tex.) containing the STAT3 direct repeat consensus sequence for 15 min (Preston, (2005)). For the experiment of APE1 interacting with STAT3, purified APE1 protein is reduced with 2 mM DTT (dithiothreitol) for 10 min and diluted to a final concentration of 4 mg with 0.4 mM DTT in PBS. Reduced APE1 is added to 15 mg nuclear extract as above. The final concentration of DTT in redox reactions is 0.04 mM.

Structure (SMILES): CCCCCCCCC/C(=C\C1=C(C)C(=O)C(OC)=C(OC)C1=O)C(=O)O [Example E3330]
- potentiation of the activity of STATTIC (T-ALL cells [1]): potentiates
- potentiation of the activity of doxorubicin (T-ALL cells [1]): potentiates
- IC50 [2]: 20 to 30 µM
- MTD [3]: > 250 mg/kg
- reduction in Survivin and Bcl-xL mRNA (Survivin and Bcl-xL mRNA): 2-10 fold
- activation status of other signaling pathways involved in T-ALL (STAT3): do not affect
- phosphorylation state and nuclear translocation of STAT3 (STAT3): do not affect
- leukemia cell apoptosis (T-ALL cells [4]): significant leukemia cell apoptosis; also recorded: induces leukemia cell apoptosis
- frequency of CD45+ in the BM (refractory T-ALL cells; 50 mg/kg/d): marked decrease
- circulating blasts (human CD45+ cells in peripheral blood) (refractory T-ALL cells; 50 mg/kg/d): significant reduction
- DNA binding and transcriptional activity of the target TFs of Ref-1 (STAT3, AP-1, and NF-κB): disrupt
- leukemia cell survival (leukemia cells): markedly inhibits
- IC50 [5]: 10 to 30 µM
- IC50 (TAIL7 cells): 29.7 µM

Structure (SMILES): CCCC(=CC1=C(OC)C(=O)c2ccccc2C1=O)C(=O)N(CC)CC [Example 5c]
- MTD [3]: > 250 mg/kg
- activation status of other signaling pathways involved in T-ALL (STAT3): do not affect
- phosphorylation state and nuclear translocation of STAT3 (STAT3): do not affect
- frequency of CD45+ in the BM (refractory T-ALL cells; 25 mg/kg/d): marked decrease
- circulating blasts (human CD45+ cells in peripheral blood) (refractory T-ALL cells; 25 mg/kg/d): significant reduction
- DNA binding and transcriptional activity of the target TFs of Ref-1 (STAT3, AP-1, and NF-κB): disrupt
- IC50 (Ref-1): 1 µM
- IC50 (TAIL7 cells): 4.2 µM

Structure (SMILES): COC1=C(C=C(C)C(=O)N(C)C)C(=O)c2ccccc2C1=O [Example 5a]
- MTD [3]: > 250 mg/kg
- activation status of other signaling pathways involved in T-ALL (STAT3): do not affect
- phosphorylation state and nuclear translocation of STAT3 (STAT3): do not affect
- DNA binding and transcriptional activity of the target TFs of Ref-1 (STAT3, AP-1, and NF-κB): disrupt
- IC50 (Ref-1): 1 µM
- IC50 (TAIL7 cells): 5.5 µM

Structure (SMILES): CCCC(=CC1=C(OC)C(=O)c2ccccc2C1=O)C(=O)N(C)C [Example 5e]
- MTD [3]: > 250 mg/kg
- activation status of other signaling pathways involved in T-ALL (STAT3): do not affect
- phosphorylation state and nuclear translocation of STAT3 (STAT3): do not affect
- DNA binding and transcriptional activity of the target TFs of Ref-1 (STAT3, AP-1, and NF-κB): disrupt
- IC50 (Ref-1): 2 µM
- IC50 (TAIL7 cells): 5.5 µM
